Source: PubChem BioAssay AID192 (DTP/NCI, 2004)
Several values for one entry are separate records, joined by “and”; a condition that tells them apart may be missing. Identical values can stand only once. Inconclusive results and toxic doses are left out.

Tested on: BDF1 mice, B16 melanoma ip, median survival T/C
Assay: NCI In Vivo Anticancer Drug Screen. Data for tumor model B16 Melanoma (intraperitoneal) in B6D2F1 (BDF1) mice
Details: endpoint: median survival time, higher = longer survival
In short: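 Vehicle-treated animals serve as the reference (C); treated animals (T) are scored for survival or tumor size after tumor transplantation.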

[1] = dose: 12.5 mg/kg/injection, schedule: Q01DX009 (ip), vehicle: Klucel (hydroxypropylcellulose) (HPC)
[2] = dose: 50.0 mg/kg/injection, schedule: Q01DX009 (ip), vehicle: Klucel (hydroxypropylcellulose) (HPC)
[3] = dose: 0.3 mg/kg/injection, schedule: Q01DX009 (ip), vehicle: saline
[4] = dose: 1.2 mg/kg/injection, schedule: Q01DX009 (ip), vehicle: saline
[5] = dose: 100.0 mg/kg/injection, schedule: Q01DX009 (ip), vehicle: saline
[6] = dose: 50.0 mg/kg/injection, schedule: Q01DX009 (ip), vehicle: saline with Tween-80
[7] = dose: 6.25 mg/kg/injection, schedule: Q01DX009 (ip), vehicle: Klucel (hydroxypropylcellulose) (HPC)
[8] = dose: 6.25 mg/kg/injection, schedule: Q01DX009 (ip), vehicle: saline with Tween-80
[9] = dose: 12.5 mg/kg/injection, schedule: Q01DX009 (ip), vehicle: saline with Tween-80
[10] = dose: 25.0 mg/kg/injection, schedule: Q01DX009 (ip), vehicle: saline with Tween-80
[11] = dose: 25.0 mg/kg/injection, schedule: Q01DX009 (ip), vehicle: Klucel (hydroxypropylcellulose) (HPC)
[12] = dose: 12.5 mg/kg/injection, schedule: Q01DX009 (ip), vehicle: saline
[13] = dose: 50.0 mg/kg/injection, schedule: Q01DX009 (ip), vehicle: saline
[14] = dose: 100.0 mg/kg/injection, schedule: Q01DX009 (ip), vehicle: Klucel (hydroxypropylcellulose) (HPC)
[15] = dose: 200.0 mg/kg/injection, schedule: Q01DX009 (ip), vehicle: Klucel (hydroxypropylcellulose) (HPC)
[16] = dose: 400.0 mg/kg/injection, schedule: Q01DX009 (ip), vehicle: Klucel (hydroxypropylcellulose) (HPC)
[17] = dose: 100.0 mg/kg/injection, schedule: Q01DX009 (ip), vehicle: saline with Tween-80
[18] = dose: 200.0 mg/kg/injection, schedule: Q01DX009 (ip), vehicle: saline with Tween-80
[19] = dose: 25.0 mg/kg/injection, schedule: Q01DX009 (ip), vehicle: saline

For `O=C(Nc1cccc2ccccc12)Oc1ccccc1Cc1ccccc1`, the T/C (dose: 100.0 mg/kg/injection, schedule: Q04DX003 (ip), vehicle: saline) was 100 % of control, the T/C (dose: 200.0 mg/kg/injection, schedule: Q04DX003 (ip), vehicle: saline) was 106 % of control and the T/C (dose: 400.0 mg/kg/injection, schedule: Q04DX003 (ip), vehicle: saline) was 106 % of control.
In the case of `O=[N+]([O-])c1ccc(C2OC2c2ccccc2)cc1` (centres undefined), the T/C (dose: 9.38 mg/kg/injection, schedule: Q01DX009 (ip), vehicle: saline with Tween-80) is reported as 100 % of control, the T/C [1] is reported as 103 % of control and the T/C (dose: 18.7 mg/kg/injection, schedule: Q01DX009 (ip), vehicle: saline with Tween-80) is reported as 105 % of control. For the same compound, the T/C (dose: 37.5 mg/kg/injection, schedule: Q01DX009 (ip), vehicle: saline with Tween-80) was 97 % of control, the T/C [2] was 100 % of control and the T/C (dose: 75.0 mg/kg/injection, schedule: Q01DX009 (ip), vehicle: saline with Tween-80) was 102 % of control. The T/C (dose: 150.0 mg/kg/injection, schedule: Q01DX009 (ip), vehicle: saline with Tween-80) was 97 % of control.
For `Cn1c(N)c(C(=O)/C=C/c2ccccc2)c(=O)n(C)c1=O`, the T/C [2] was 88 % of control.
For `IP(c1ccccc1)(c1ccccc1)(c1ccccc1)N1C2CCCCC21` (centres undefined), the T/C (dose: 0.15 mg/kg/injection, schedule: Q01DX009 (ip), vehicle: saline) was 115 % of control, the T/C [3] was 111 % of control and the T/C (dose: 0.6 mg/kg/injection, schedule: Q01DX009 (ip), vehicle: saline) was 111 % of control. The T/C [4] was 92 % of control.
`COc1cc(C(N)=O)cc(OC)c1O` was tested, and the T/C [5] was 115 % of control, the T/C (dose: 200.0 mg/kg/injection, schedule: Q01DX009 (ip), vehicle: saline) was 110 % of control and the T/C (dose: 400.0 mg/kg/injection, schedule: Q01DX009 (ip), vehicle: saline) was 118 % of control.
For `c1ccc(-c2nn(-c3ccccc3)[n+](-c3cccc4ccccc34)n2)cc1`, the T/C (dose: 2.0 mg/kg/injection, schedule: Q01DX009 (ip), vehicle: saline with Tween-80) was 97 % of control and the T/C (dose: 4.0 mg/kg/injection, schedule: Q01DX009 (ip), vehicle: saline with Tween-80) was 93 % of control.
In the case of `CCCN(C)/N=N/c1nc[nH]c1C(N)=O`, the T/C [6] is reported as 112 % of control.
For `CCOc1ccc(NC(=O)Nc2cccc3ccccc23)cc1`, the T/C (dose: 1.56 mg/kg/injection, schedule: Q01DX009 (ip), vehicle: Klucel (hydroxypropylcellulose) (HPC)) was 91 % of control, the T/C (dose: 3.13 mg/kg/injection, schedule: Q01DX009 (ip), vehicle: Klucel (hydroxypropylcellulose) (HPC)) was 91 % of control and the T/C [7] was 86 % of control and 91 % of control.
`O=C(Nc1cc(Cl)ccc1Cl)c1ccc(Cl)cc1Cl` was tested, and the T/C [8] was 97 % of control, the T/C (dose: 6.25 mg/kg/injection, schedule: Q04DX003 (ip), vehicle: saline with Tween-80) was 92 % of control and the T/C [9] was 93 % of control. The T/C (dose: 12.5 mg/kg/injection, schedule: Q04DX003 (ip), vehicle: saline with Tween-80) was 96 % of control, the T/C [10] was 100 % of control and the T/C (dose: 25.0 mg/kg/injection, schedule: Q04DX003 (ip), vehicle: saline with Tween-80) was 88 % of control.
In the case of `Oc1ccc(Nc2c3ccccc3nc3c2ccc2ccccc23)cc1CN(CCCl)CCCl`, the T/C [3] is reported as 100 % of control, the T/C (dose: 0.45 mg/kg/injection, schedule: Q01DX009 (ip), vehicle: saline) is reported as 117 % of control and the T/C (dose: 0.8 mg/kg/injection, schedule: Q01DX009 (ip), vehicle: saline) is reported as 100 % of control. For the same compound, the T/C [4] was 107 % of control.
For `CCCCCCCCCCCC(=O)Nc1ccccc1`, the T/C [1] was 105 % of control, the T/C [11] was 90 % of control and the T/C [2] was 92 % of control.
For `Nc1ncnc2c1ncn2C1OC(COP(=O)(O)O)C(O)C1O` (centres undefined), the T/C [12] was 124 % of control, the T/C (dose: 12.5 mg/kg/injection, schedule: Q01DX009 (ip), vehicle: water) was 112 % of control and the T/C (dose: 20.0 mg/kg/injection, schedule: Q01DX009 (ip), vehicle: water) was 113 % of control. For the same compound, the T/C (dose: 25.0 mg/kg/injection, schedule: Q01DX009 (ip), vehicle: water) was 108 % of control, the T/C (dose: 40.0 mg/kg/injection, schedule: Q01DX009 (ip), vehicle: water) was 110 % of control and the T/C [13] was 116 % of control. For the same compound, the T/C (dose: 50.0 mg/kg/injection, schedule: Q01DX009 (ip), vehicle: water) was 108 % of control, the T/C (dose: 80.0 mg/kg/injection, schedule: Q01DX009 (ip), vehicle: water) was 104 % of control and the T/C [5] was 121 % of control. The T/C (dose: 100.0 mg/kg/injection, schedule: Q01DX009 (ip), vehicle: water) was 118 % of control, the T/C (dose: 160.0 mg/kg/injection, schedule: Q01DX009 (ip), vehicle: water) was 113 % of control and the T/C (dose: 200.0 mg/kg/injection, schedule: Q01DX009 (ip), vehicle: water) was 118 % of control. The T/C (dose: 320.0 mg/kg/injection, schedule: Q01DX009 (ip), vehicle: water) was 124 % of control and the T/C (dose: 400.0 mg/kg/injection, schedule: Q01DX009 (ip), vehicle: water) was 117 % of control.
`CCCCCCCC(=O)CCCC` was tested, and the T/C [14] was 106 % of control, the T/C [15] was 106 % of control and the T/C [16] was 94 % of control.
For `CCCCNC(C)(C)C(S)c1ccc(Cl)cc1` (centres undefined), the T/C [7] was 102 % of control, the T/C [1] was 97 % of control and the T/C [11] was 89 % of control.
In the case of `CS(=O)(=O)OCCCCCCCCCOS(C)(=O)=O`, the T/C [11] is reported as 94 % of control, the T/C [2] is reported as 88 % of control and the T/C [14] is reported as 102 % of control.
In the case of `O=C(Nc1ccc(Cl)cc1)Nc1ccccc1F`, the T/C [17] is reported as 89 % of control and the T/C [18] is reported as 86 % of control.
`O=C1c2ccccc2CC12OC2c1ccccc1` (centres undefined) was tested, and the T/C [2] was 94 % of control, the T/C [14] was 90 % of control and the T/C [15] was 103 % of control. For the same compound, the T/C [16] was 96 % of control.
For `CC1(C)N=C(N)N=C(N)N1c1ccc(CCCCc2ccc(S(=O)(=O)F)cc2Cl)c(Cl)c1`, the T/C (dose: 1.56 mg/kg/injection, schedule: Q01DX009 (ip), vehicle: saline with Tween-80) was 120 % of control, the T/C (dose: 3.13 mg/kg/injection, schedule: Q01DX009 (ip), vehicle: saline with Tween-80) was 120 % of control and the T/C (dose: 3.13 mg/kg/injection, schedule: Q01DX009 (ip), vehicle: saline) was 117 % of control. The T/C [8] was 176 % of control, the T/C (dose: 9.4 mg/kg/injection, schedule: Q04DX003 (ip), vehicle: saline) was 120 % of control and the T/C [9] was 158 % of control and 189 % of control. The T/C (dose: 18.75 mg/kg/injection, schedule: Q04DX003 (ip), vehicle: saline) was 119 % of control, the T/C [10] was 164 % of control and 200 % of control and the T/C [19] was 158 % of control. For the same compound, the T/C [6] was 182 % of control and 189 % of control, the T/C [13] was 178 % of control and the T/C (dose: 89.0 mg/kg/injection, schedule: Q04DX003 (ip), vehicle: saline with Tween-80) was 157 % of control. The T/C [17] was 197 % of control, the T/C (dose: 133.0 mg/kg/injection, schedule: Q04DX003 (ip), vehicle: saline with Tween-80) was 95 % of control and the T/C (dose: 150.0 mg/kg/injection, schedule: Q04DX003 (ip), vehicle: saline) was 160 % of control.
For `O=[N+]([O-])c1cc([N+](=O)[O-])c(Nc2cccc3ccccc23)c([N+](=O)[O-])c1`, the T/C [2] was 92 % of control, the T/C [14] was 103 % of control and the T/C [15] was 97 % of control.
For `COc1ccc(/C=C2\CCC3C(=O)CCCC3(C)C2=O)cc1` (centres undefined), the T/C (dose: 100.0 mg/kg/injection, schedule: Q04DX003 (ip), vehicle: Klucel (hydroxypropylcellulose) (HPC)) was 94 % of control, the T/C (dose: 200.0 mg/kg/injection, schedule: Q04DX003 (ip), vehicle: Klucel (hydroxypropylcellulose) (HPC)) was 92 % of control and the T/C (dose: 400.0 mg/kg/injection, schedule: Q04DX003 (ip), vehicle: Klucel (hydroxypropylcellulose) (HPC)) was 89 % of control.
In the case of `O=S(=O)(O)c1ccc(-c2c3nc(c(-c4ccc(S(=O)(=O)O)cc4)c4ccc([nH]4)c(-c4ccc(S(=O)(=O)O)cc4)c4nc(c(-c5ccc(S(=O)(=O)O)cc5)c5ccc2[nH]5)C=C4)C=C3)cc1`, the T/C (dose: 6.25 mg/kg/injection, schedule: Q01DX009 (ip), vehicle: saline) is reported as 104 % of control, the T/C [12] is reported as 105 % of control and the T/C [19] is reported as 117 % of control. The T/C [13] was 110 % of control.
With `CC(CCl)C(C#N)(c1ccccc1)c1ccccc1` (centres undefined) the T/C [6] was 93 % of control, the T/C [17] was 90 % of control and the T/C [18] was 102 % of control.
